# Data as given in PMC7345095, “New Synthetic Nitro-Pyrrolomycins as Promising Antibacterial and Anticancer Agents” (Antibiotics, 2020).
# Like-named read-outs stand apart in the source and are kept apart here.
# Key:
# [1] = test system: Pseudomonas aeruginosa ATCC 10145; test: Kill curve assay (MBC), planktonic cells; type: cell-based; settings: for MBC: read-out: MBC P. aeruginosa
# Experimental: (§1) Kill curve assays were performed to test the antimicrobial efficacy of pyrrolomycins (i.e., 1, 2, 5a, 5b, 5c, 5d), as well as that of the natural PM-C against the indicator pathogen Staphylococcus aureus ATCC 25923 and Pseudomonas aeruginosa ATCC 10145 strains. Briefly, a single colony of either S. aureus or P. aeruginosa strains was picked up and pre-cultivated (ca. 16 h) at 37 °C with shacking (160 rpm) in Luria Bertani medium (hereinafter named as LB and composed of (g L^−1): sodium chloride, 10; yeast extract, 5; tryptone, 10). The same medium was solidified by adding 15 g L^−1 of bacteriological agar when needed. Bacterial cells were then inoculated (1% v/v) in LB medium amended with increasing concentrations—ranging from 0 to 100 μM as initial concentration—of each pyrrolomycin tested, challenging the cultures for 24 h and incubating them as reported above. The actual number of viable colony forming units per milliliter of culture (CFU mL^−1) of each bacterial strain, who survived the challenge exerted by pyrrolomycins, was evaluated through the spot plate count method and compared to unchallenged cultures, as reported elsewhere. The data are reported as average values (n = 3) of CFU mL^−1 in the logarithmic (Log10) scale with standard deviation (SD). Evaluation of the MIC of PM-5c, and -5d against S. aureus and of PM-5d against P. aeruginosa was performed by incubating 1% (v/v) of an overnight bacterial suspension in LB medium in presence of increasing concentrations of the PMs. As a control, MIC of PM-C was measured. At the time of the inoculum and after overnight challenge, the absorbance of the cultures at 600 nm, which is an indirect way to measure the bacterial cell growth, was registered using a Spark™ 10 M multimode microplate reader measuring. The experiment was carried out in triplicate, being the absorbance corrected by subtracting that of the culture medium amended with the corresponding PM tested.
# [2] = test system: Staphylococcus aureus ATCC 25923; test: Kill curve assay (MBC), planktonic cells; type: cell-based
# Experimental: as §1
# [3] = test system: P. aeruginosa; test: MIC by absorbance at 600 nm after overnight challenge; type: cell-based; settings: Pseudomonas aeruginosa, LB medium, absorbance 600 nm
# Experimental: as §1
# [4] = test system: S. aureus; test: as above; type: cell-based; settings: Staphylococcus aureus, LB medium, absorbance 600 nm
# Experimental: as §1
# [5] = test system: HCT116 colon cancer cell line; test: MTT viability assay; type: cell-based
# Experimental: (§2) The HCT116 colon cancer cell line (ATCC® CCL-247™), the MCF 7 breast cancer cell line (ATCC® HTB-22™) and the hTERT RPE-1 -immortalized retinal pigment epithelial cell line (ATCC® CRL-4000™) used in this study were cultured in DMEM medium (Gibco, Paisley, UK), supplemented with 1% glutamine, 10% heat-inactivated fetal bovine serum and 100U/mL penicillin and 100 μg/mL streptomycin, as already described, and maintained at 37 °C and 5% CO2.
# (§3) Cells were plated at 5 × 10^3 cells/well in 96-well plates and incubated for 24 h prior to treatment for further 48 h of different concentrations of PMs. After incubation, a sample of 20 μL of Thiazolyl Blue Tetrazolium Bromide (5 mg mL^−1) in PBS was added to each well and cultured for 2h at 37 °C in CO2 incubator. After removing the medium containing MTT and three washes with PBS, 100 μL of warm DMSO was added to each well to dissolve formazan. Samples were shaken for 10 min, at room temperature in the dark, and the absorbance was recorded at 570 nm using a microplate reader (Spark® 20M Tecan Trading AG, Switzerland). Percentage of cell viability with respect to untreated control cells (vehicle control) was calculated after subtraction of the blank. The IC50 values, that is the concentration necessary to inhibit the 50% of cell growth, was calculated using a dose-response model, obtained from sigmoidal fitting of response curves of percent inhibition versus logarithmic concentration of PMs, using Graph Pad Prism software. Each result represents the mean value of three different experiments performed in triplicate.
# [6] = test system: MCF 7 breast cancer cell line; test: MTT viability assay; type: cell-based
# Experimental: as §2, §3
# [7] = test system: hTERT RPE-1 immortalized retinal pigment epithelial cell line; test: MTT viability assay (cytotoxicity on normal cells); type: cell-based; settings: hTERT-RPE1, 48 h, read-out: IC50 hTERT-RPE-1
# Experimental: as §2, §3
# [8] = test system: HCT116 and MCF 7 cancer cell lines; test: MTT viability assay, statements over both cancer cell lines; type: cell-based
# Experimental: as §2, §3
# [9] = test system: P. aeruginosa cells; test: AO/EB double staining of bacterial cells; type: cell-based, Pseudomonas aeruginosa; settings: 100 μM, 24 h
# Experimental: It is noteworthy to highlight that the main difference between PM-C and 5d relies only on the presence of the nitro group in the position R3 of the latter, which is likely responsible for its enhanced electronegativity and, therefore, better biological reactivity over PM-C.
# Figure 3 Fluorescence micrographs of P. aeruginosa cells treated for 24 h with 100 μM of PM-C or 10 μM of PM 5d after AO/EB double staining. Control represents untreated cells. Green (AO) are viable cells, red (EB) dead cells, and orange vital cells with damaged membranes.
# [10] = test system: HCT116 cells; test: Morphological assessment, phase contrast inverted microscope; type: cell-based; settings: 0.1 µM (sub-inhibitory), 24 h
# Experimental: HCT116 cells were seeded in 24 well culture plates with a cell density of 1 × 10^5 cells/well. After 24 h cells were incubated for 24 h with different concentration of the selected PMs, and observed under a phase contrast inverted microscope (Carl Zeiss) at 200× magnification, for morphological changes assessment.
# [11] = test system: HCT116 cells; test: Acridine orange/ethidium bromide (AO/EB) staining; type: cell-based; settings: treated at IC50 for 24 and 48 h
# From the text: Cells were immediately observed under a fluorescent microscopy (Carl Zeiss) at 630 × magnification.
# [12] = test system: Escherichia coli; parameters: method as in PMID 31405863, PMID 15730262; settings: natural PMs; cited from earlier work
smiles,measurement,setting,value
"O=C(c1cc(Cl)c(Cl)[nH]1)c1cc(Cl)cc(Cl)c1O [PM-C, reference compound]",MBC,"[1]; Pseudomonas aeruginosa, ATCC10145, 24 h",> 100 µM
same,"log reduction in the number of viable CFUs, P. aeruginosa","[1]; highest concentration tested 100 μM, 24 h",did not display any antimicrobial effect
same,MBC,"[1]; minimal bactericidal concentration, planktonic cells, 24 h challenge, LB medium",>100 µM
same,MBC,"[2]; Staphylococcus aureus, ATCC25923, 24 h, read-out: MBC S. aureus",90 µM
same,decrease in the number of vital S. aureus cells,"[2]; increasing concentrations up to 80 μM, 24 h",~ 3 log
same,MIC,[3],> 40 µM
same,MIC,[4],1 µM
same,IC50,"[5]; Homo sapiens, HCT-116, 48 h, MTT, 48 h of treatment",800 ± 300 nM
same,"C-SI (Cancer Selectivity Index), HCT116","[5]; ratio of IC50 of normal hTERT-RPE-1 to that of HCT116, first value of the cell",10.4
same,IC50,"[6]; Homo sapiens, MCF7, 48 h, MTT, 48 h of treatment",1500 ± 400 nM
same,"C-SI (Cancer Selectivity Index), MCF 7","[6]; ratio of IC50 of normal hTERT-RPE-1 to that of MCF 7, second value of the cell",5.5
same,IC50,[7],8.3 ± 1.9 µM
same,IC50,"[8]; MTT, 48 h challenge, group statement, read-out: IC50, regardless of the cancer cell line (HCT116, MCF 7)",800 to 2250 nM
same,"C-SI, mean value among the two cancer cell lines",[8]; mean of HCT116 and MCF 7 C-SI,8
same,AO/EB staining colour of P. aeruginosa cells,[9],appeared green
same,morphology of treated HCT116 cells,[10],more fibroblastic and less clumped morphology
same,AO/EB fluorescence of treated HCT116 cells (type of cell death),[11],orange fluorescence
same,MIC against Escherichia coli,[12],more than 300 μM
